Source: patent US10081647B2, “Phosphate substituted quinolizine derivatives useful as HIV integrase inhibitors” (Merck Sharp & Dohme Corp., priority 2015, dated 2018)
Where two headings read alike, the source gives them in different places.

System: HIV-1 (NL4-3 strain)
Test: Assay for inhibition of HIV replication (MT4-gag-GFP reporter cell line, kinetic assay)
Assay type: cell-based
Details: IP from 4-parameter dose response curve
Method: This assay is useful for assessing the ability of a compound of the present inventiongin to inhibit HIV replication. The assay is a kinetic assay that employs a reporter cell line (MT4-gag-GFP) to quantify the number of new cells infected in each round of replication.
MT4-GFP cells (250,000 cells/ml) are bulk-infected with HIV-1 (NL4-3 strain) at low multiplicity of infection (MOI) in RPMI+10% FBS for 24 hours. Cells are then washed once in RPMI+10% FBS and resuspended in RPMI+0% or 10% or 100% normal human serum (NHS). Test compounds are serial-diluted in DMSO using an ECHO liquid handler. The infected MT4-GFP cells are added to a 384-well poly-D-lysine coated black plate with clear bottom in which the diluted test compounds are placed. The cells are seeded at 8,000 cells per well and the final DMSO concentration is adjusted to 0.4%. The infected cells (Green GFP cells) are then quantified at both 24 and 48 hours post incubation using Acumen eX3. Viral reproductive ratio (R0) is determined using the number of infected cells at 48 hours divided by the number of infected cells at 24 hours. Percent viral growth inhibition is calculated by [1−(R−Rtripledrug)/(RDMSO−Rtripledrug)]*100. Compound potency IP or IC50 can be determined using a 4-parameter dose response curve analysis.

[1] = infected MT4-GFP cells in 100% normal human serum, read-out: WILD TYPE CELL ASSAY Viking IP (100% NHS)
[2] = infected MT4-GFP cells in RPMI + 0% normal human serum, read-out: WILD TYPE CELL ASSAY Viking IP (0% NHS)

CCOP(=O)(CCCNC1Cn2cc(C(=O)NCc3ccc(F)cc3F)c(=O)c(O)c2C(=O)C1(C)C)OCC (stereo not drawn) [Compound 106]
IC50 [1]: 95 nM | IC50 [2]: 3.6 nM

CCOP(=O)(CCCNC1Cn2cc(C(=O)NCc3ccc(F)cc3F)c(=O)c(O)c2C(=O)C1(C)C)OCC (stereo not drawn) [Compound 105]
IC50 [1]: 628 nM | IC50 [2]: 15 nM

COC1Cn2cc(C(=O)NCc3ccc(F)cc3F)c(=O)c(O)c2C(=O)C1(C)CCOCCP(=O)(OCOC(=O)OC(C)C)OCOC(=O)OC(C)C (stereo not drawn) [Compound 63]
IC50 [1]: 566 nM | IC50 [2]: 4.6 nM

COC1Cn2cc(C(=O)NCc3ccc(F)cc3F)c(=O)c(O)c2C(=O)C1(C)COCCP(=O)(OCOC(=O)OC(C)C)OCOC(=O)OC(C)C (stereo not drawn) [Compound 40]
IC50 [1]: 118 nM | IC50 [2]: 0.5 nM

CCOP(=O)(CCOCCC1(C)C(=O)c2c(O)c(=O)c(C(=O)NCc3ccc(F)cc3F)cn2CC1OC)OCC (stereo not drawn) [Compound 55]
IC50 [1]: 128 nM | IC50 [2]: 6.7 nM

CCOP(=O)(CCCOCCC1(C)C(=O)c2c(O)c(=O)c(C(=O)NCc3ccc(F)cc3F)cn2CC1OC)OCC (stereo not drawn) [Compound 47]
IC50 [1]: 4600 nM | IC50 [2]: 298 nM

CC(C)OC(=O)OCOP(=O)(CCCNC1Cn2cc(C(=O)NCc3ccc(F)cc3F)c(=O)c(O)c2C(=O)C1(C)C)OCOC(=O)OC(C)C (stereo not drawn) [Compound 109]
IC50 [1]: 3520 nM | IC50 [2]: 38 nM

CC(C)OC(=O)OCOP(=O)(CCCNC1Cn2cc(C(=O)NCc3ccc(F)cc3F)c(=O)c(O)c2C(=O)C1(C)C)OCOC(=O)OC(C)C (stereo not drawn) [Compound 110]
IC50 [1]: 154 nM | IC50 [2]: 8.8 nM

CCOP(=O)(CCOCC1(C)C(=O)c2c(O)c(=O)c(C(=O)NCc3ccc(F)cc3F)cn2CC1OC)OCC (stereo not drawn) [Compound 34]
IC50 [1]: 238 nM | IC50 [2]: 8.2 nM

CC1(C)C(=O)c2c(O)c(=O)c(C(=O)NCc3ccc(F)cc3F)cn2CC1OCCP(=O)(O)O (stereo not drawn) [Compound 67]
IC50 (Human immunodeficiency virus 1, NL43, infected MT4-GFP cells in 100% normal human serum, read-out: WILD TYPE CELL ASSAY Viking IP (100% NHS)): 4260 nM | IC50 (Human immunodeficiency virus 1, NL43, infected MT4-GFP cells in RPMI + 0% normal human serum, read-out: WILD TYPE CELL ASSAY Viking IP (0% NHS)): 669 nM

CCOP(=O)(CCCOCCC1(C)C(=O)c2c(O)c(=O)c(C(=O)NCc3ccc(F)cc3F)cn2CC1OC)OCC (stereo not drawn) [Compound 45]
IC50 [1]: 300 nM | IC50 [2]: 8.2 nM

COC1Cn2cc(C(=O)NCc3ccc(F)cc3F)c(=O)c(O)c2C(=O)C1(C)CCOCCP(=O)(O)O (stereo not drawn) [Compound 60]
IC50 [1]: 5180 nM | IC50 [2]: 765 nM

COCCC1(C)C(=O)c2c(O)c(=O)c(C(=O)NCc3ccc(F)cc3F)cn2CC1OCCP(=O)(OCOC(=O)OC(C)C)OCOC(=O)OC(C)C (stereo not drawn) [Compound 88]
IC50 [1]: 29 nM | IC50 [2]: 0.9 nM

CC(C)OC(=O)OCOP(=O)(CCCOC1Cn2cc(C(=O)NCc3ccc(F)cc3F)c(=O)c(O)c2C(=O)C1(C)C)OCOC(=O)OC(C)C (stereo not drawn) [Compound 75]
IC50 [1]: 191 nM | IC50 [2]: 6.3 nM

COCCC1(C)C(=O)c2c(O)c(=O)c(C(=O)NCc3ccc(F)cc3F)cn2CC1OCCP(=O)(OCOC(=O)OC(C)C)OCOC(=O)OC(C)C (stereo not drawn) [Compound 85]
IC50 [1]: 7.7 nM | IC50 [2]: 0.291 nM
